Ends that are not written are not given here. * marks the point of attachment. Biotin = O=C1N[C@H]2[C@H](CS[C@H]2CCCCC(=O)*)N1
Assays:
3T3-L1 Adipocytes [1] = assay: Free fatty acid levels in cultured mouse 3T3-L1 adipocytes, isoproterenol stimulated (Example 17); assay type: cell-based; details: isoproterenol 1 nM
Procedure: Mouse 3T3-L1 cells were seeded at a density between 1,000-20,000 cells per well on 96-well, 48-well, or 24-well plates in Pre-adipocyte Medium (Zen-Bio, Durham, N.C.) and grown to confluence at 37° C. in a humidified atmosphere of 5% CO2/95% air. Two days after confluence, cells were placed in Adipocyte Differentiation Medium (Zen-Bio, Durham, N.C.) and cultured for three additional days at 37° C. in a humidified atmosphere of 5% CO2/95% air. The culture media was then replaced with Adipocyte Maintenance Medium (Zen-Bio) and the cells were maintained for an additional 9-14 days at 37° C. in a humidified atmosphere of 5% CO2/95% air with partial medium replacement every other day. Following 12-17 days of differentiation, test peptides were added at a final concentration of 25-50 μM and incubated for 18-20 hours in Adipocyte Maintenance Medium at 37° C. in a humidified atmosphere of 5% CO2/95%. After the media incubation, media was removed and exchanged with Assay Buffer (Zen-Bio) containing isoproterenol (1 nM) (added to all samples except untreated controls) and the test peptides. Cells were incubated for a further 3 hours at 37° C. in a humidified atmosphere of 5% CO2/95%. Free fatty acid concentrations in the media were determined using a Free Fatty Acid Assay Kit (Zen-Bio) according to the manufacturer's instructions using a plate reader (540 nm).
Absorbance values were corrected for untreated background and expressed relative to isoproterenol treated cells. Treatment with isoproterenol (1 nM) alone was used as the free fatty acid level stimulatory control. The relative standard deviation of the isoproterenol control was <10%. […] Free fatty acid levels for insulin (100 nM) treatment were <5% of the isoproterenol control value.

3T3-L1 Adipocytes [2] = assay: Free fatty acid levels in cultured mouse 3T3-L1 adipocytes, isoproterenol stimulated (Example 2); assay type: cell-based; details: test peptides 25 μM; isoproterenol 1 nM
How it was run: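 Release of free fatty acids, read at 540 nm, was stimulated with 1 nM isoproterenol for 3 h in mouse 3T3-L1 adipocytes (12–17 days of differentiation). Cells were pre-exposed to 25 μM peptide for 18–20 h plus 1 h, with peptide kept in during stimulation. Values are background-subtracted and normalised to isoproterenol alone.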

3T3-L1 Adipocytes [3] = assay: Free fatty acid levels in cultured mouse 3T3-L1 adipocytes, forskolin stimulated (Example 3); assay type: cell-based; details: test peptides 25 μM; forskolin 1 μM
Procedure: Mouse 3T3-L1 cells were seeded at 1,000-20,000 cells per well on 96-well, 48-well, or 24-well plates in Pre-adipocyte Medium (Zen-Bio, Durham, N.C.) and grown to confluence at 37° C. in a humidified atmosphere of 5% CO2/95% air. Two days after confluence, cells were placed in Adipocyte Differentiation Medium (Zen-Bio, Durham, N.C.) and cultured for three additional days at 37° C. in a humidified atmosphere of 5% CO2/95% air. The culture media was then replaced with Adipocyte Maintenance Medium (Zen-Bio) and the cells were maintained for an additional 9-14 days at 37° C. in a humidified atmosphere of 5% CO2/95% air with partial medium replacement every other day. Following 12-17 days of differentiation, test peptides were added at a final concentration of 25 μM and incubated for 18-20 hours in Adipocyte Maintenance Medium at 37° C. in a humidified atmosphere of 5% CO2/95%. After 18-20 hours, the media was exchanged with fresh Adipocyte Maintenance Medium containing test peptides and incubated for 1 h at 37° C. in a humidified atmosphere of 5% CO2/95%. After 1 h media was exchanged with Assay Buffer (Zen-Bio) containing forskolin (1 μM) (added to all samples except untreated controls) and test peptides. Cells were incubated for a further 3 hours at 37° C. in a humidified atmosphere of 5% CO2/95%. Free fatty acid concentrations in the media were determined using a Free Fatty Acid Assay Kit (Zen-Bio) according to the manufacturer's instructions using a plate reader (540 nm). Absorbance values were corrected for untreated background and expressed relative to forskolin treated cells. Treatment with forskolin (1 μM) alone was used as the free fatty acid level stimulatory control. The relative standard deviation of the forskolin control was <10%. […] Free fatty acid levels for insulin (100 nM) treatment were <9% of the forskolin control value.

Human Primary Adipocytes = assay: Free fatty acid levels in cultured human primary adipocytes, forskolin stimulated (Example 5); assay type: cell-based; details: test peptides 25 μM; forskolin 1 μM
Procedure: Human primary adipocytes were seeded at 5,000-100,000 cells per well on 96-well, 48-well, or 24-well plate in Pre-adipocyte Medium (Zen-Bio, Durham, N.C.) and grown to confluence at 37° C. in a humidified atmosphere of 5% CO2/95% air. Two days after confluence, cells were placed in Adipocyte Differentiation Medium (Zen-Bio, Durham, N.C.) and cultured for three additional days at 37° C. in a humidified atmosphere of 5% CO2/95% air. The culture media was then replaced with Adipocyte Maintenance Medium (Zen-Bio) and the cells were maintained for an additional 11-21 days at 37° C. in a humidified atmosphere of 5% CO2/95% air with partial medium replacement every other day. Following 14-24 days of differentiation, test peptides were added at a final concentration of 25 μM and incubated for 18-20 hours in Adipocyte Maintenance Medium at 37° C. in a humidified atmosphere of 5% CO2/95%. After 18-20 hours, the media was exchanged with fresh Adipocyte Maintenance Medium containing test peptides and incubated for 1 h at 37° C. in a humidified atmosphere of 5% CO2/95%. After 1 h media was exchanged with Assay Buffer (Zen-Bio) containing forskolin (1 μM) (added to all samples except untreated controls) and test peptides. Cells were incubated for a further 3 hours at 37° C. in a humidified atmosphere of 5% CO2/95%. Free fatty acid concentrations in the media were determined using a Free Fatty Acid Assay Kit (Zen-Bio) according to the manufacturer's instructions using a plate reader (540 nm). Absorbance values were corrected for untreated background and expressed relative to forskolin treated cells. Treatment with forskolin (1 μM) alone was used as the free fatty acid level stimulatory control. The relative standard deviation of the forskolin control was <20%. […] Free fatty acid levels for insulin (100 nM) treatment were <8% of the forskolin control value.

[4] = test system: Diet Induced Obese (DIO) mice; assay: Body weight, blood glucose and fat mass in Diet Induced Obese mice, 10 days (Example 6); assay type: in vivo, Male C57BL/6 mice; details: male DIO mice; 10 days twice daily intraperitoneal 15 mg/kg; N = 8; mean
Procedure: Animals were randomized to treatment groups based on blood glucose levels and body weight. The peptides of the invention were administered to two groups of male DIG mice once or twice daily by subcutaneous or intraperitoneal injection at a dose of 15 mg/kg/dose for 10 days (N=8 animals per treatment group). An additional group of male DIG mice (n=8) received vehicle (water or saline) alone. Body weight, blood glucose levels and food intake were monitored. Body mass distribution (fat vs lean) was determined by quantitative whole body NMR prior to dosing and at the end of dosing.

[5] = Stability in mouse plasma, peptides 100 uM (Example 14); assay type: in vitro ADME; details: mouse plasma 37° C., peptide 100 uM; for remaining at 0.25 h, 100 uM / remaining at 0.5 h, 100 uM / remaining at 1 h, 100 uM / remaining at 2 h, 100 uM / remaining at 3 h, 100 uM: pooled mouse plasma; for remaining at 0.25 h, 100 uM: 15 min, read-out: % Remaining at Each Time Point: 15 min; for remaining at 0.5 h, 100 uM: 30 min, read-out: % Remaining at Each Time Point: 30 min; for remaining at 1 h, 100 uM: 60 min, read-out: % Remaining at Each Time Point: 60 min; for remaining at 2 h, 100 uM: 120 min, read-out: % Remaining at Each Time Point: 120 min; for remaining at 3 h, 100 uM: 180 min, read-out: % Remaining at Each Time Point: 180 min
Procedure: Peptides (100 uM) were incubated in pooled mouse plasma at 37° C. and samples were removed and immediately analyzed for the concentration of intact peptide by LC/MS/MS over the course of 3 hours. The percent of peptide remaining in plasma at each time point was calculated relative to the initial peak area (Table 12).

| Substance | Free Fatty Acid Levels in 3T3-L1 Adipocytes Expressed as a Percent of Isoproterenol Control: Percent of Control Value (3T3-L1 Adipocytes [1]; Peptide Concentration 50 μM) [%] | Free Fatty Acid Levels in 3T3-L1 Adipocytes Expressed as a Percent of Isoproterenol Control: Percent of Control Value (3T3-L1 Adipocytes [2]) [%] | Free Fatty Acid Levels in 3T3-L1 Adipocytes Expressed as a Percent of Forskolin Control: Percent of Control Value (3T3-L1 Adipocytes [3]) [%] | Free Fatty Acid Levels in Human Primary Adipocytes Expressed as a Percent of Forskolin Control: Percent of Control Value (Human Primary Adipocytes) [%] | further results |
| --- | --- | --- | --- | --- | --- |
| 358 (Biotin-RWQEMNYIFYPR) [compound 358] |  |  |  |  | Free Fatty Acid Levels in 3T3-L1 Adipocytes Expressed as a Percent of Isoproterenol Control: Percent of Control Value (3T3-L1 Adipocytes [1]; Peptide Concentration 25 μM): 60.8% |
| 359 (RWQEMNYIFYPRK-biotin; not fully specified (residue 13); printed as RWQEMNYIFYPRK-(Biotin)) [compound 359] |  |  |  |  | Free Fatty Acid Levels in 3T3-L1 Adipocytes Expressed as a Percent of Isoproterenol Control: Percent of Control Value (3T3-L1 Adipocytes [1]; Peptide Concentration 25 μM): 34.8% |
| 367 (Biotin-KRWQEMNYIFYPR) [compound 367] | 59.0 |  |  |  |  |
| 368 (PEG600-KNYIFYPR) [compound 368] | 70.0 |  |  |  |  |
| 369 (PEG600-KEMNYIFYPR) [compound 369] | 87.5 |  |  |  |  |
| 370 (PEG600-KWQEMNYIFYPR) [compound 370] | 129.0 |  |  |  |  |
| 371 (PEG600-KRWQEMNYIFYP) [compound 371] | 118.0 |  |  |  |  |
| 372 (PEG600-KWQEMNYIFYP) [compound 372] | 168.0 |  |  |  |  |
| H-MRWQEMNYIFYPRALR-OH [compound 218] |  | 41.0 | 43.6 | 75.4 |  |
| H-RWQEMGYIFYPR-OH [compound 205] |  | 71.5 | 64.5 | 94.5 |  |
| H-RWQEMGYIFYPRALR-OH [compound 215] |  | 27.2 | 37.4 | 102 | Difference from Vehicle Control: Decrease from Baseline in Blood Glucose [4]: 16.4 mg/dL; Difference from Vehicle Control: Decrease from Baseline in Body Weight (%) [4]: 2.31%; Difference from Vehicle Control: Decrease from Baseline in Fat Mass [4]: 0.67 g; % Remaining at Each Time Point: 0 min [5]: 100%; remaining at 0.25 h, 100 uM [5]: 71.2%; remaining at 0.5 h, 100 uM [5]: 37.1%; remaining at 1 h, 100 uM [5]: 42.1%; remaining at 2 h, 100 uM [5]: 15.4%; remaining at 3 h, 100 uM [5]: 6.98% |
| H-RWQEMGYIFYPRN-OH [compound 206] |  | 53.8 | 50.6 | 100 |  |
| H-RWQEMGYIFYPRNLR-OH [compound 216] |  | 36.3 | 50.1 | 110 |  |
| H-RWQEMGYIFYPRQ-OH [compound 207] |  | 44.6 | 51.6 | 108 |  |
| H-RWQEMGYIFYPRQLR-OH [compound 217] |  | 27.3 | 40.3 | 108 | Difference from Vehicle Control: Decrease from Baseline in Blood Glucose [4]: -9.75 mg/dL; Difference from Vehicle Control: Decrease from Baseline in Body Weight (%) [4]: −2.54%; Difference from Vehicle Control: Decrease from Baseline in Fat Mass [4]: -0.89 g; % Remaining at Each Time Point: 0 min [5]: 100%; remaining at 0.25 h, 100 uM [5]: 71%; remaining at 0.5 h, 100 uM [5]: 33.2%; remaining at 1 h, 100 uM [5]: 53.6%; remaining at 2 h, 100 uM [5]: 22.8%; remaining at 3 h, 100 uM [5]: 14.1% |

— patent US11753445B2, “Therapeutic peptides” (COHBAR, INC., priority 2016, dated 2023)
